The results in this text go back to US9751888B2, “Heterocyclic compounds and uses thereof” (Infinity Pharmaceuticals, Inc., priority 2013, dated 2017).

For assay [1], the target named is p110 γ (RAW264.7 cells) (Mus musculus (Mouse), UniProt Q9JHG7). The assay can be described thus: PI3K-γ selective cellular assay: phospho-AKT in C5a stimulated RAW264.7 macrophages. It is filed as cell-based. The conditions noted are these: serum-starved RAW264.7 cells stimulated with C5a. Here is the method:
Certain compounds provided herein were tested in RAW 264.7 cell model using procedures as described above.

The target in assay [2] is human Class I PI3 kinase β (Homo sapiens (Human), UniProt P42338). Briefly: PI3-Kinase Promega ADP-Glo Max assay, β isoform. It is filed as biochemical. As to conditions: 40 nM kinase, 3 mM ATP, 500 uM diC8-PtdInsP; read-out: Promega β PI3K IC50. In general terms: ADP-Glo turns the ADP formed in a reaction into a luminescent signal.
Description: Promega ADP-Glo Max assay kit (Cat. No. V7002) was utilized to determine IC50 values for α, β, δ and γ isoforms of human Class I PI3 kinases (Millipore). […] Reactions were incubated at room temperature for 2 hours followed by addition of 25 uL of stop solution. After a 40-minute incubation at room temperature, 50 uL of Promega detection mix was added followed by incubation for 1 hour at room temperature. Plates were then read on Envision plate reader in luminescence mode. Data was converted to % inhibition using the following equation below:
Assay [3] addresses human Class I PI3 kinase α (Homo sapiens (Human), UniProt P42336). The assay can be described thus: PI3-Kinase Promega ADP-Glo Max assay, α isoform. The conditions noted are these: 20 nM kinase, 3 mM ATP, 500 uM diC8-PtdInsP; read-out: Promega α PI3K IC50. In kind it is biochemical.
Description: (§1) Promega ADP-Glo Max assay kit (Cat. No. V7002) was utilized to determine IC50 values for α, β, δ and γ isoforms of human Class I PI3 kinases (Millipore). […] Reactions were incubated at room temperature for 2 hours followed by addition of 25 uL of stop solution. After a 40-minute incubation at room temperature, 50 uL of Promega detection mix was added followed by incubation for 1 hour at room temperature. Plates were then read on Envision plate reader in luminescence mode. Data was converted to % inhibition using the following equation below: [formula] where S is the sample luminescence, Pos is a positive control without added PI3K, Neg is the negative control without added compound. Data was then plotted as % inhibition vs compound concentration.
Assay [4] deals with p110 δ (RAJI cells) (Homo sapiens (Human), UniProt O00329). Briefly: PI3K-δ selective cellular assay: phospho-AKT in anti-human IgM stimulated RAJI cells. As to conditions: serum-starved RAJI cells stimulated with anti-human IgM. In kind it is cell-based. The source says: A compound's ability in selectively inhibiting PI3K-δ can be assessed using RAJI cells, i.e., B lymphocyte cells derived from lymphoma patients. Briefly, serum-starved RAJI cells are stimulated with anti-human IgM, thereby causing signaling through the B-cell receptors, as described in, for example, He et al., Leukemia Research (2009) 33: 798-802. B-cell receptor signaling is important for the activation, differentiation, and survival of B cells and certain B-cell derived cancers. Reduction of phospho-AKT is indicative of compounds that may inhibit B-cell proliferation and function in certain diseases. […] Certain compounds provided herein were tested in RAJI cell model using procedures as described above.
Chain of p110 δ (RAJI cells) (O00329 whole entry): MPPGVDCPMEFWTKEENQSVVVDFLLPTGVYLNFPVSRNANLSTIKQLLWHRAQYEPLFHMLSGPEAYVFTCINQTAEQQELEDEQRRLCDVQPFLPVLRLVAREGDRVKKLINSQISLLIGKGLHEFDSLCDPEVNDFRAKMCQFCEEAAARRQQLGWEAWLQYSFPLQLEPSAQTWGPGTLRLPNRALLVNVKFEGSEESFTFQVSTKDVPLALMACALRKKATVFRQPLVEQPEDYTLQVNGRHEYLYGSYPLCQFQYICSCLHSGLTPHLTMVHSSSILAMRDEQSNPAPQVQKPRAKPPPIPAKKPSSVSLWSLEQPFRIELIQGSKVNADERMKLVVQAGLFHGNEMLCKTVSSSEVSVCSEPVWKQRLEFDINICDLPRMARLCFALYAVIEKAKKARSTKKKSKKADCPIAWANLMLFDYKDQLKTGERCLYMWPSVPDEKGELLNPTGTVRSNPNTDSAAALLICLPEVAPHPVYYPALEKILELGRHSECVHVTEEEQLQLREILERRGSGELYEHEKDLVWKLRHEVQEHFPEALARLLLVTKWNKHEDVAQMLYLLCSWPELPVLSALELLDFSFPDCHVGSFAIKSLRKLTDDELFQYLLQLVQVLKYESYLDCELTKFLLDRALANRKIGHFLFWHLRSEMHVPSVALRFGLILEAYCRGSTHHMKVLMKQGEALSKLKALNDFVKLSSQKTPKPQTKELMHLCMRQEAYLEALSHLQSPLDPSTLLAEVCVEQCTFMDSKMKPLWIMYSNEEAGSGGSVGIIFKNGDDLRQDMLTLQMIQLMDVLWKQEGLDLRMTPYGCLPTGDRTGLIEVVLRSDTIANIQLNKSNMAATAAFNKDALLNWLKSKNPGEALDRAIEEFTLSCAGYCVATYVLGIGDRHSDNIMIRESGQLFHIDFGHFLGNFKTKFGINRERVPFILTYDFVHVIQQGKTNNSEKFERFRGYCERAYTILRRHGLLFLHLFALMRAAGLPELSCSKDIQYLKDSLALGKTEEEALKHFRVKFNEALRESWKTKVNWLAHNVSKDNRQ
Chain of p110 δ (RAJI cells) (P27986 whole entry partner): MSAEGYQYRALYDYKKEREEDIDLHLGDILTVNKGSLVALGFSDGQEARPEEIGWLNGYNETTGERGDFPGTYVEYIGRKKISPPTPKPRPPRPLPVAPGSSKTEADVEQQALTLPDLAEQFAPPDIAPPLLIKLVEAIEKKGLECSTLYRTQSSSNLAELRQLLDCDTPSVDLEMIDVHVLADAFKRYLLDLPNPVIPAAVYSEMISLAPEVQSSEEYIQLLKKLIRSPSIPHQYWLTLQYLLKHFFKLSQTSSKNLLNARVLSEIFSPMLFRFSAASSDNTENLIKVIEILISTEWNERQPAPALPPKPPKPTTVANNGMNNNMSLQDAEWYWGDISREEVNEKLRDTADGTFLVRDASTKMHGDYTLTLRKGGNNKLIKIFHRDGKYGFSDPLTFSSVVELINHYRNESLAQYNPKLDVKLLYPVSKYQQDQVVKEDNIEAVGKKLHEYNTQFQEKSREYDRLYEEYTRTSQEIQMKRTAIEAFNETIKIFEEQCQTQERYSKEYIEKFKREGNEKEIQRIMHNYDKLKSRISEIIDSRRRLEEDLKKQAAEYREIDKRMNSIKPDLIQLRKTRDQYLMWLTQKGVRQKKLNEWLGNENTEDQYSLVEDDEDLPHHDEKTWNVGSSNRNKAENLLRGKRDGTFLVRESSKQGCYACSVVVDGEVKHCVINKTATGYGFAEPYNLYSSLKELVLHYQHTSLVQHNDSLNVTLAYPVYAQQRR

Assay [5] deals with human Class I PI3 kinase δ (Homo sapiens (Human), UniProt O00329). Briefly: PI3-Kinase Promega ADP-Glo Max assay, δ isoform. In kind it is biochemical. As to conditions: 20 nM kinase, 3 mM ATP, 500 uM diC8-PtdInsP; read-out: Promega δ PI3K IC50.
Chain of human Class I PI3 kinase δ (O00329 whole entry, canonical isoform): as the sequence (O00329 whole entry) above
Chain of human Class I PI3 kinase δ (P27986 whole entry partner, canonical isoform): as the sequence (P27986 whole entry partner) above
Description: as §1
Assay [6] has as its target human Class I PI3 kinase γ (Homo sapiens (Human), UniProt P48736). Briefly: PI3-Kinase Promega ADP-Glo Max assay, γ isoform. It is filed as biochemical. As to conditions: 40 nM kinase, 3 mM ATP, 500 uM diC8-PtdInsP; read-out: Promega γ PI3K IC50. Here is the method:
Promega ADP-Glo Max assay kit (Cat. No. V7002) was utilized to determine IC50 values for α, β, δ and γ isoforms of human Class I PI3 kinases (Millipore). Samples of kinase (20 nM α or δ, 40 nM β or γ isoform) were incubated with compound for 15 minutes at room temperature in reaction buffer (15 mM HEPES pH 7.4, 20 mM NaCl, 1 mM EGTA, 0.02% Tween 20, 10 mM MgCl2, 0.2 mg/mL bovine-γ-globulins) followed by addition of ATP/diC8-PtdInsP mixture to give final concentrations of 3 mM ATP and 500 uM diC8-PtdInsP. Reactions were incubated at room temperature for 2 hours followed by addition of 25 uL of stop solution. After a 40-minute incubation at room temperature, 50 uL of Promega detection mix was added followed by incubation for 1 hour at room temperature. Plates were then read on Envision plate reader in luminescence mode. Data was converted to % inhibition using the following equation below:
[formula] where S is the sample luminescence, Pos is a positive control without added PI3K, Neg is the negative control without added compound. Data was then plotted as % inhibition vs compound concentration.
Certain compounds provided herein were tested in PI3-Kinase Promega Assay using procedures as described above to determine IC50 values for α, β, δ and/or γ isoforms.

SMILES strings stand for the structures.

For orientation: IC50 means the concentration needed to halve the response being measured.

Chain of p110 γ (RAW264.7 cells) (Q9JHG7 whole entry): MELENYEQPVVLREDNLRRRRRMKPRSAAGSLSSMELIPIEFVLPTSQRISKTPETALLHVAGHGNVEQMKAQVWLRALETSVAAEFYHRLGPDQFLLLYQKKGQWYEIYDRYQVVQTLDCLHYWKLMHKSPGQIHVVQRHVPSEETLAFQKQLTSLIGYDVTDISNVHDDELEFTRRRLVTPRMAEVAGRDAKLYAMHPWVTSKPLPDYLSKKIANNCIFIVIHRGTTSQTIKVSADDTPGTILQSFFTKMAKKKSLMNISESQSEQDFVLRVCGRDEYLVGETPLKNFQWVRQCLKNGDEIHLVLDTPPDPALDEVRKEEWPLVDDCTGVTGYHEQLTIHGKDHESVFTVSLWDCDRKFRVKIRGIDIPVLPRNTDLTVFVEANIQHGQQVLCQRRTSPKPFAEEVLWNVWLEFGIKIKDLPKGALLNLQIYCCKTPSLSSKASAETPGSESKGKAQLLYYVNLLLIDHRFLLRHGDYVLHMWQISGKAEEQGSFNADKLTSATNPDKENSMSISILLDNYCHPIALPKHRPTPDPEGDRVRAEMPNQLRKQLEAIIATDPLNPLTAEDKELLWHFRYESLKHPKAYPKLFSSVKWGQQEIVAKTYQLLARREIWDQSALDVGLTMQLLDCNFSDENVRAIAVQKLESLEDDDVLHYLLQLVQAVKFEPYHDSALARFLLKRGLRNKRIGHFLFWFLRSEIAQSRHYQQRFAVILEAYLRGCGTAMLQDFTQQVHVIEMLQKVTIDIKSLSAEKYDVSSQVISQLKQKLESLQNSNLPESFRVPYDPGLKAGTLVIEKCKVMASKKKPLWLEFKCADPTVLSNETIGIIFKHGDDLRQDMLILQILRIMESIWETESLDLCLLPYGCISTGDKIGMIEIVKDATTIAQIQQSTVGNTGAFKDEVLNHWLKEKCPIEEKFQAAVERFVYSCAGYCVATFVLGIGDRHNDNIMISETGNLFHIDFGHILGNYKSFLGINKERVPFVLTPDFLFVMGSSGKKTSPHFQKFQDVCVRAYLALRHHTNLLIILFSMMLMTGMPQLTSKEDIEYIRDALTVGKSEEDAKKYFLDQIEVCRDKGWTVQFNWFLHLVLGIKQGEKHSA
Chain of human Class I PI3 kinase γ (P48736 whole entry, canonical isoform): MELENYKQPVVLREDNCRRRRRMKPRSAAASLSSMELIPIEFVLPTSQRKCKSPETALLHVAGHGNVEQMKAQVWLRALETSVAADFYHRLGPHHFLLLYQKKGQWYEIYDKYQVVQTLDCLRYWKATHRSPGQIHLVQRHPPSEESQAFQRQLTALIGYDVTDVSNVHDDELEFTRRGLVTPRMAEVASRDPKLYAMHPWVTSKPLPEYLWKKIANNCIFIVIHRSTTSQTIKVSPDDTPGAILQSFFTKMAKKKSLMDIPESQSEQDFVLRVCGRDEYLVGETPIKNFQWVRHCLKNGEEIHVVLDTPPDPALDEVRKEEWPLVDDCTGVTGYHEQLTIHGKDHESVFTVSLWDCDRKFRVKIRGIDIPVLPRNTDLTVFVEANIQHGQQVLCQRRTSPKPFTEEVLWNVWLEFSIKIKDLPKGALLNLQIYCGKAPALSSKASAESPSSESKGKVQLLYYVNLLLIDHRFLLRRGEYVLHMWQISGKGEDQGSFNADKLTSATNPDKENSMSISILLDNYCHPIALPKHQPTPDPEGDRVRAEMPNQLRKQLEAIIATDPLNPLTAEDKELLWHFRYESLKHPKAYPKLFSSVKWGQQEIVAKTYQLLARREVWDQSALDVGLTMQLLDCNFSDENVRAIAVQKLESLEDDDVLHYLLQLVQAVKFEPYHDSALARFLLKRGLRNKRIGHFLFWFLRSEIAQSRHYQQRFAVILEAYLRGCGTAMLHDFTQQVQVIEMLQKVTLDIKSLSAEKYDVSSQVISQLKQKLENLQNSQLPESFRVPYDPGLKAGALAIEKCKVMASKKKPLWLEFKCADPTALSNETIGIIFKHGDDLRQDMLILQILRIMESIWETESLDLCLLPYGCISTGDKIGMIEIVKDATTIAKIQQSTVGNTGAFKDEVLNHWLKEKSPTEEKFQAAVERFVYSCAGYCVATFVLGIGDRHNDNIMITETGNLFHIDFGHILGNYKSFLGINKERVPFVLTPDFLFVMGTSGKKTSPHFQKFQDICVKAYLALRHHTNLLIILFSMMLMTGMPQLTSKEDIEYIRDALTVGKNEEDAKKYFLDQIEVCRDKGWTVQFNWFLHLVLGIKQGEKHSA

Regarding `Cc1ccccc1-n1c([C@H](C)NC(=O)c2c(N)nn3cccnc23)cc2cccc(Cl)c2c1=O` [Compound 73], the IC50 lay within 1 to 10 nM in assay [1]; 100 to 500 nM in assay [2]; 1000 to 10000 nM in assay [3]; 10 to 100 nM in assay [4]; 500 to 1000 nM in assay [5]; 100 to 500 nM in assay [6].
On to `Cc1cccc(-n2c([C@H](C)NC(=O)c3c(N)nn4cccnc34)cc3cccc(Cl)c3c2=O)c1` [Compound 74], for which the IC50 was in the range of 10 to 100 nM in assay [1]; 1000 to 10000 nM in assay [2]; 1000 to 10000 nM in assay [3]; 10 to 100 nM in assay [4]; 500 to 1000 nM in assay [5]; 100 to 500 nM in assay [6].
Take `C[C@H](NC(=O)c1c(N)nn2cccnc12)c1cc2cccc(Cl)c2c(=O)n1CCS(=O)(=O)N(C)C` [Compound 58]: the half-inhibitory concentration (IC50) in assay [1] was in the range of 1 to 10 nM; in assay [2], 500 to 1000 nM; in assay [3], 500 to 1000 nM; in assay [4], 10 to 100 nM; in assay [5] it was 100 to 500 nM; in assay [6] it was 10 to 100 nM.
Consider `C[C@H](NC(=O)c1c(N)nn2cccnc12)c1cc2cccc(Cl)c2c(=O)n1-c1ccccc1F` [Compound 84], for which the IC50 in assay [1] lay within 10 to 100 nM; in assay [2], 100 to 500 nM; in assay [3], 1000 to 10000 nM; in assay [4], 10 to 100 nM; in assay [5], 500 to 1000 nM; in assay [6] it was 100 to 500 nM.
As to `C[C@H](NC(=O)c1c(N)ncn2ccnc12)c1cc2cccc(Cl)c2c(=O)n1-c1ccccc1` [Compound 43], the IC50 in assay [1] was in the range of 1 to 10 nM; in assay [2], 1000 to 10000 nM; in assay [3] it was 1000 to 10000 nM; in assay [4], 1 to 10 nM; in assay [5], 100 to 500 nM; in assay [6] it was 10 to 100 nM.
As for `C[C@H](NC(=O)c1c(N)nn2cccnc12)c1nc2cccc(Cl)c2c(=O)n1-c1ccc(F)c(F)c1` [Compound 91], the IC50 is 10 to 100 nM in assay [1]; 1000 to 10000 nM in assay [2]; 1000 to 10000 nM in assay [3]; 100 to 500 nM in assay [4]; 1000 to 10000 nM in assay [5]; 500 to 1000 nM in assay [6].
For the molecule `C[C@H](NC(=O)c1c(N)nn2cccnc12)c1nc2c(Cl)cccc2c(=O)n1-c1ccccc1` [Compound 87], the IC50 in assay [1] lay within 100 to 500 nM; in assay [2] it was 1000 to 10000 nM; in assay [3] it was 1000 to 10000 nM; in assay [4] it was 100 to 500 nM; in assay [5], 1000 to 10000 nM; in assay [6], 1000 to 10000 nM.
Regarding `C[C@H](NC(=O)c1c(N)nn2cccnc12)c1cc2cccc(Cl)c2c(=O)n1CCc1nnnn1C` [Compound 55], the IC50 lay in the range of 100 to 500 nM in assay [1]; 100 to 500 nM in assay [2]; 1000 to 10000 nM in assay [3]; 10 to 100 nM in assay [4]; 1000 to 10000 nM in assay [5]; 100 to 500 nM in assay [6].
As to `C[C@H](NC(=O)c1c(N)nn2cccnc12)c1cc2cccc(Cl)c2c(=O)n1-c1ccccc1S(C)(=O)=O` [Compound 83], the IC50 in assay [1] lay within 500 to 1000 nM; in assay [2] it was 1000 to 10000 nM; in assay [3] it was 1000 to 10000 nM; in assay [4] it was 1000 to 10000 nM; in assay [5], 1000 to 10000 nM; in assay [6] it was 1000 to 10000 nM.
For the molecule `C[C@H](NC(=O)c1c(N)nn2cccnc12)c1cc2cccc(Cl)c2c(=O)n1CCNS(C)(=O)=O` [Compound 13], the IC50 in assay [1] lay in the range of 100 to 500 nM; in assay [2] it was 500 to 1000 nM; in assay [3], 1000 to 10000 nM; in assay [4], 10 to 100 nM; in assay [5] it was 1000 to 10000 nM; in assay [6], 10 to 100 nM.
For the molecule `C[C@H](NC(=O)c1c(N)nn2cccnc12)c1cc2cccc(Cl)c2c(=O)n1CCc1noc(C(C)(C)C)n1` [Compound 64], the IC50 lay within 100 to 500 nM in assay [1]; 1000 to 10000 nM in assay [2]; 1000 to 10000 nM in assay [3]; 100 to 500 nM in assay [4]; 1000 to 10000 nM in assay [5]; 1000 to 10000 nM in assay [6].
Take `Cc1ccnc2c(C(=O)N[C@@H](C)c3cc4cccc(Cl)c4c(=O)n3-c3ccccc3)c(N)nn12` [Compound 82]: the IC50 in assay [1] lay within 10 to 100 nM; in assay [2], 1000 to 10000 nM; in assay [3], 1000 to 10000 nM; in assay [4] it was 10 to 100 nM; in assay [5], 1000 to 10000 nM; in assay [6], 500 to 1000 nM.
As to `C[C@H](NC(=O)c1c(N)nn2cccnc12)c1cc2cccc(CC(=O)C(C)(C)C)c2c(=O)n1-c1ccccc1` [Compound 94], the IC50 in assay [1] lay in the range of 100 to 500 nM; in assay [2], 1000 to 10000 nM; in assay [3], 1000 to 10000 nM; in assay [4] it was 500 to 1000 nM; in assay [5] it was 1000 to 10000 nM; in assay [6] it was 1000 to 10000 nM.
Regarding `C[C@H](NC(=O)c1c(N)nn2cccnc12)c1cc2cccc(Cl)c2c(=O)n1-c1ccccc1O` [Compound 68], the IC50 in assay [1] fell in the range of 1 to 10 nM; in assay [2] it was 100 to 500 nM; in assay [3], 1000 to 10000 nM; in assay [4] it was 1 to 10 nM; in assay [5] it was 500 to 1000 nM; in assay [6], 10 to 100 nM.
`C[C@H](NC(=O)c1c(N)nn2cccnc12)c1cc2cccc(Cl)c2c(=O)n1CCc1ncn[nH]1` [Compound 20]: the IC50 in assay [1] was 1000 to 10000 nM; in assay [2], 500 to 1000 nM; in assay [3], 1000 to 10000 nM; in assay [4] it was 10 to 100 nM; in assay [5] it was 1000 to 10000 nM; in assay [6] it was 500 to 1000 nM.
As for `C[C@H](NC(=O)c1c(N)nn2cccnc12)c1cc2cccc(Cl)c2c(=O)n1-c1cccc(S(C)(=O)=O)c1` [Compound 77], the IC50 in assay [1] fell in the range of 100 to 500 nM; in assay [2] it was 500 to 1000 nM; in assay [3], 1000 to 10000 nM; in assay [4], 100 to 500 nM; in assay [5], 1000 to 10000 nM; in assay [6], 500 to 1000 nM.
For `Cc1ccc(-n2c([C@H](C)NC(=O)c3c(N)nn4cccnc34)cc3cccc(Cl)c3c2=O)cc1` [Compound 75], the IC50 in assay [1] was 10 to 100 nM; in assay [2] it was 1000 to 10000 nM; in assay [3], 1000 to 10000 nM; in assay [4], 10 to 100 nM; in assay [5], 1000 to 10000 nM; in assay [6], 100 to 500 nM.
With `C[C@H](NC(=O)c1c(N)nn2cccnc12)c1cc2cccc(Cl)c2c(=O)n1CCc1cnn[nH]1` [Compound 63], the IC50 is 500 to 1000 nM in assay [1]; 100 to 500 nM in assay [2]; 1000 to 10000 nM in assay [3]; 100 to 500 nM in assay [4]; 1000 to 10000 nM in assay [5]; 500 to 1000 nM in assay [6].
As to `C[C@H](NC(=O)c1c(N)nn2cccnc12)c1cc2cccc(Cl)c2c(=O)n1-c1cccnc1` [Compound 76], the IC50 in assay [1] fell in the range of 10 to 100 nM; in assay [2], 500 to 1000 nM; in assay [3] it was 1000 to 10000 nM; in assay [4], 100 to 500 nM; in assay [5], 1000 to 10000 nM; in assay [6] it was 100 to 500 nM.
As to `C[C@H](NC(=O)c1c(N)nn2cccnc12)c1cc2cccc(Cl)c2c(=O)n1-c1ccc(S(C)(=O)=O)cc1` [Compound 80], the half-maximal inhibitory concentration (IC50) in assay [1] fell in the range of 1000 to 10000 nM; in assay [2], 1000 to 10000 nM; in assay [3] it was 1000 to 10000 nM; in assay [4], 500 to 1000 nM; in assay [5] it was 1000 to 10000 nM; in assay [6] it was 1000 to 10000 nM.
Regarding `C[C@H](NC(=O)c1c(N)nn2cccnc12)c1oc2ccc(F)cc2c(=O)c1-c1ccccc1` [Compound 96], the IC50 was 100 to 500 nM in assay [1]; 1000 to 10000 nM in assay [2]; 1000 to 10000 nM in assay [3]; 100 to 500 nM in assay [4]; 1000 to 10000 nM in assay [5]; 1000 to 10000 nM in assay [6].
